IC50 data for one molecule are collected here from ChEMBL document CHEMBL1201861, “Genomics of Drug Sensitity in Cancer screening data, Wellcome Trust Sanger Institute”.

pIC50: −log10 of the molar value.

The first assay deals with SW872. Kind of assay: cells. The class given is functional, cell-based, Homo sapiens. As to conditions: Homo sapiens, SW872.
Description: SANGER: Inhibition of human SW872 cell growth in a cell viability assay.
As usually defined, the pIC50 is −log10 of the IC50, conventionally taken in molar units. Take `CN(C)CCOc1ccc(-c2nc(-c3ccncc3)c(-c3ccc4c(c3)CC/C4=N\O)[nH]2)cc1` [SB590885]: the pIC50 was under 5.30.

A further assay deals with A4-Fuk. Kind of assay: cells. It is filed as functional, cell-based, Homo sapiens. The following applies: Homo sapiens, A4-Fuk.
Description: SANGER: Inhibition of human A4-Fuk cell growth in a cell viability assay.
Molecule `CN(C)CCOc1ccc(-c2nc(-c3ccncc3)c(-c3ccc4c(c3)CC/C4=N\O)[nH]2)cc1` [SB590885] showed a negative-log IC50 (pIC50) of under 5.30.

A further assay concerns SCH. Kind of assay: cells. It is filed as functional, cell-based, Homo sapiens. As to conditions: Homo sapiens, SCH.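 Also: growth inhibition of human SCH cells, read out in a cell viability assay.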
Description: SANGER: Inhibition of human SCH cell growth in a cell viability assay.
The molecule `CN(C)CCOc1ccc(-c2nc(-c3ccncc3)c(-c3ccc4c(c3)CC/C4=N\O)[nH]2)cc1` [SB590885] gave a pIC50 of under 5.30.

The test system of another assay is SK-NEP-1. Kind of assay: cells. The class given is functional, cell-based, Homo sapiens. As to conditions: Homo sapiens, SK-NEP-1.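 Also: growth inhibition of human SK-NEP-1 cells, read out by a cell viability assay.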
Description: SANGER: Inhibition of human SK-NEP-1 cell growth in a cell viability assay.
For the molecule `CN(C)CCOc1ccc(-c2nc(-c3ccncc3)c(-c3ccc4c(c3)CC/C4=N\O)[nH]2)cc1` [SB590885], the pIC50 was under 5.30.

The next assay has as its system SK-N-DZ. Kind of assay: cells. It is filed as functional, cell-based, Homo sapiens. As to conditions: Homo sapiens, SK-N-DZ; read-out: IC50.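 Also: growth inhibition of the cancer cell line, read out through a viability assay.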
Description: SANGER: Inhibition of human SK-N-DZ cell growth in a cell viability assay.
On to `CN(C)CCOc1ccc(-c2nc(-c3ccncc3)c(-c3ccc4c(c3)CC/C4=N\O)[nH]2)cc1` [SB590885], for which the pIC50 is under 5.30.

The test system of a further assay is D283 Med. As to the kind of experiment: cells. The class given is functional, cell-based, Homo sapiens. The following applies: Homo sapiens, D283 Med.
Description: SANGER: Inhibition of human D-283MED cell growth in a cell viability assay.
Molecule `CN(C)CCOc1ccc(-c2nc(-c3ccncc3)c(-c3ccc4c(c3)CC/C4=N\O)[nH]2)cc1` [SB590885] gave a pIC50 of under 5.30.

The test system of another assay is NCI-H1838. As to the kind of experiment: cells. It is filed as functional, cell-based, Homo sapiens. As to conditions: Homo sapiens, NCI-H1838.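 Also: growth inhibition of NCI-H1838 cells, determined with a cell viability readout.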
Description: SANGER: Inhibition of human NCI-H1838 cell growth in a cell viability assay.
With `CN(C)CCOc1ccc(-c2nc(-c3ccncc3)c(-c3ccc4c(c3)CC/C4=N\O)[nH]2)cc1` [SB590885], the negative logarithm of the IC50 (pIC50) was under 5.30.

The subject of a further assay is EOL1. As to the kind of experiment: cells. As to conditions: Homo sapiens, EOL1. It is filed as functional, cell-based, Homo sapiens.
Description: SANGER: Inhibition of human EoL-1-cell cell growth in a cell viability assay.
On to `CN(C)CCOc1ccc(-c2nc(-c3ccncc3)c(-c3ccc4c(c3)CC/C4=N\O)[nH]2)cc1` [SB590885], for which the pIC50 is 6.74.

Another assay deals with BV-173. As to the kind of experiment: cells. It is filed as functional, cell-based, Homo sapiens. As to conditions: Homo sapiens, BV-173.
Description: SANGER: Inhibition of human BV-173 cell growth in a cell viability assay.
`CN(C)CCOc1ccc(-c2nc(-c3ccncc3)c(-c3ccc4c(c3)CC/C4=N\O)[nH]2)cc1` [SB590885]: the negative-log IC50 (pIC50) is 6.11.

The subject of the next assay is EKVX. Kind of assay: cells. The class given is functional, cell-based, Homo sapiens. The following applies: Homo sapiens, EKVX.
Description: SANGER: Inhibition of human EKVX cell growth in a cell viability assay.
As to `CN(C)CCOc1ccc(-c2nc(-c3ccncc3)c(-c3ccc4c(c3)CC/C4=N\O)[nH]2)cc1` [SB590885], the negative-log IC50 (pIC50) was under 5.30.

The subject of a further assay is COLO-800. As to the kind of experiment: cells. It is filed as functional, cell-based, Homo sapiens. As to conditions: Homo sapiens, COLO-800.
Description: SANGER: Inhibition of human COLO-800 cell growth in a cell viability assay.
The molecule `CN(C)CCOc1ccc(-c2nc(-c3ccncc3)c(-c3ccc4c(c3)CC/C4=N\O)[nH]2)cc1` [SB590885] had a pIC50 of under 5.30.

Another assay has as its system NB10. Kind of assay: cells. The class given is functional, cell-based, Homo sapiens. The following applies: Homo sapiens, NB10.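 Also: growth inhibition of NB10 cells, read out by a cell viability assay.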
Description: SANGER: Inhibition of human NB10 cell growth in a cell viability assay.
`CN(C)CCOc1ccc(-c2nc(-c3ccncc3)c(-c3ccc4c(c3)CC/C4=N\O)[nH]2)cc1` [SB590885] had a pIC50 of under 5.30.

In the next assay the test system is U-87 MG. As to the kind of experiment: cells. The class given is functional, cell-based, Homo sapiens, U-87MG ATCC. The following applies: Homo sapiens, U-87 MG.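 Also: growth inhibition of the cells measured with a viability assay.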
Description: SANGER: Inhibition of human U-87-MG cell growth in a cell viability assay.
On to `CN(C)CCOc1ccc(-c2nc(-c3ccncc3)c(-c3ccc4c(c3)CC/C4=N\O)[nH]2)cc1` [SB590885], for which the negative-log IC50 (pIC50) is under 5.30.

The next assay concerns KINGS-1. Kind of assay: cells. It is filed as functional, cell-based, Homo sapiens. As to conditions: Homo sapiens, KINGS-1.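 Also: cell viability assay measuring suppression of KINGS-1 cell growth.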
Description: SANGER: Inhibition of human KINGS-1 cell growth in a cell viability assay.
Regarding `CN(C)CCOc1ccc(-c2nc(-c3ccncc3)c(-c3ccc4c(c3)CC/C4=N\O)[nH]2)cc1` [SB590885], the pIC50 was under 5.30.

A further assay has as its system QIMR-WIL. Kind of assay: cells. It is filed as functional, cell-based, Homo sapiens. As to conditions: Homo sapiens, QIMR-WIL.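 Also: growth inhibition of QIMR-WIL cells, read out with a cell viability assay.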
Description: SANGER: Inhibition of human QIMR-WIL cell growth in a cell viability assay.
Consider `CN(C)CCOc1ccc(-c2nc(-c3ccncc3)c(-c3ccc4c(c3)CC/C4=N\O)[nH]2)cc1` [SB590885], for which the pIC50 was under 5.30.

For the next assay, the system named is ETK-1. Kind of assay: cells. The class given is functional, cell-based, Homo sapiens. As to conditions: Homo sapiens, ETK-1.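 Also: growth inhibition of human ETK-1 cells, read out with a cell viability assay.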
Description: SANGER: Inhibition of human ETK-1 cell growth in a cell viability assay.
Regarding `CN(C)CCOc1ccc(-c2nc(-c3ccncc3)c(-c3ccc4c(c3)CC/C4=N\O)[nH]2)cc1` [SB590885], the pIC50 was under 5.30.

The test system of another assay is MSTO-211H. As to the kind of experiment: cells. The class given is functional, cell-based, Homo sapiens. As to conditions: Homo sapiens, MSTO-211H.
Description: SANGER: Inhibition of human MSTO-211H cell growth in a cell viability assay.
In turn, `CN(C)CCOc1ccc(-c2nc(-c3ccncc3)c(-c3ccc4c(c3)CC/C4=N\O)[nH]2)cc1` [SB590885] had a negative logarithm of the IC50 (pIC50) of under 5.30.

Another assay deals with COLO-829. Kind of assay: cells. The class given is functional, cell-based, Homo sapiens. As to conditions: Homo sapiens, COLO-829.
Description: SANGER: Inhibition of human COLO-829 cell growth in a cell viability assay.
For the molecule `CN(C)CCOc1ccc(-c2nc(-c3ccncc3)c(-c3ccc4c(c3)CC/C4=N\O)[nH]2)cc1` [SB590885], the pIC50 was 6.01.

Another assay relates to K562. As to the kind of experiment: cells. It is filed as functional, cell-based, Homo sapiens. As to conditions: Homo sapiens, K562.
Description: SANGER: Inhibition of human K-562 cell growth in a cell viability assay.
For the molecule `CN(C)CCOc1ccc(-c2nc(-c3ccncc3)c(-c3ccc4c(c3)CC/C4=N\O)[nH]2)cc1` [SB590885], the pIC50 was under 5.30.

For another assay, the system named is NCI-H69. As to the kind of experiment: cells. As to conditions: Homo sapiens, NCI-H69. The class given is functional, cell-based, Homo sapiens.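 Also: growth inhibition of the cell line, read out with a cell viability assay.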
Description: SANGER: Inhibition of human NCI-H69 cell growth in a cell viability assay.
The molecule `CN(C)CCOc1ccc(-c2nc(-c3ccncc3)c(-c3ccc4c(c3)CC/C4=N\O)[nH]2)cc1` [SB590885] showed a pIC50 of under 5.30.

For another assay, the system named is A101D. Kind of assay: cells. It is filed as functional, cell-based, Homo sapiens. The following applies: Homo sapiens, A101D.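 Also: growth inhibition of the cell line, measured with a viability assay.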
Description: SANGER: Inhibition of human A101D cell growth in a cell viability assay.
Regarding `CN(C)CCOc1ccc(-c2nc(-c3ccncc3)c(-c3ccc4c(c3)CC/C4=N\O)[nH]2)cc1` [SB590885], the pIC50 was 6.30.

The next assay has as its system TE-12. Kind of assay: cells. As to conditions: Homo sapiens, TE-12. The class given is functional, cell-based, Homo sapiens.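 Also: growth inhibition of TE-12 cells, read out by a cell viability assay.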
Description: SANGER: Inhibition of human TE-12 cell growth in a cell viability assay.
Regarding `CN(C)CCOc1ccc(-c2nc(-c3ccncc3)c(-c3ccc4c(c3)CC/C4=N\O)[nH]2)cc1` [SB590885], the pIC50 is under 5.30.

For the next assay, the system named is COLO-320-HSR. Kind of assay: cells. It is filed as functional, cell-based, Homo sapiens. The following applies: Homo sapiens, COLO-320-HSR.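 Also: growth inhibition of COLO-320-HSR cells, determined with a cell viability assay.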
Description: SANGER: Inhibition of human COLO-320-HSR cell growth in a cell viability assay.
In the case of `CN(C)CCOc1ccc(-c2nc(-c3ccncc3)c(-c3ccc4c(c3)CC/C4=N\O)[nH]2)cc1` [SB590885], the pIC50 is under 5.30.

The subject of a further assay is MFM-223. Kind of assay: cells. It is filed as functional, cell-based, Homo sapiens. As to conditions: Homo sapiens, MFM-223.
Description: SANGER: Inhibition of human MFM-223 cell growth in a cell viability assay.
The molecule `CN(C)CCOc1ccc(-c2nc(-c3ccncc3)c(-c3ccc4c(c3)CC/C4=N\O)[nH]2)cc1` [SB590885] gave a pIC50 of under 5.30.
